Reference: ChEMBL document CHEMBL1201862, “PubChem BioAssay data set” (2004)
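A five-concentration, 48-hour dose response in 96-well plates underlies each endpoint, interpolated linearly between surrounding concentrations. Abbreviation: GI50, concentration required for 50% inhibition of growth.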 The source made the active and inactive calls. Rule as the data show it: active = GI50 up to about 1.1 µM and inactive = higher.

Columns and labels:
Assay in all cases: NCI-60 cell line screen, 48 h
[1] = test system: SNB-19
[2] = test system: SF-539
[3] = test system: NCI-H460
[4] = test system: M14
[5] = test system: NCI-H522
[6] = test system: T47D
[7] = test system: ACHN
[8] = test system: OVCAR-8
[9] = test system: EKVX
[10] = test system: UACC-257
[11] = test system: TK-10
[12] = test system: HCC 2998
[13] = test system: CAKI-1
[14] = test system: OVCAR-4
[15] = test system: NCI/ADR-RES
[16] = test system: RXF 393
[17] = test system: HCT-15
[18] = test system: MOLT-4
[19] = test system: HL-60
[20] = test system: BT-549

SMILES	GI50 [1]	GI50 [2]	GI50 [3]	GI50 [4]	GI50 [5]	GI50 [6]	GI50 [7]	GI50 [8]	GI50 [9]	GI50 [10]	GI50 [11]	GI50 [12]	GI50 [13]	GI50 [14]	GI50 [15]	GI50 [16]	GI50 [17] [µM]	GI50 [18]	GI50 [19]	GI50 [20]
COc1ccc(C[C@H]2NC(=O)/C=C/C[C@@H]([C@H](C)[C@H]3O[C@@H]3c3ccccc3)OC(=O)[C@H](CC(C)C)OC(=O)[C@H](C)CNC2=O)cc1	2.47e-05 µM (active)	1.94e-05 µM (active)	3.13e-05 µM (active)	1.72e-05 µM (active)	1.05e-05 µM (active)	> 0.0001 µM (active)	5.93e-05 µM (active)	1.69e-05 µM (active)	3.77e-05 µM (active)	> 5.89e-05 µM (active)	> 0.0001 µM (active)	4.45e-05 µM (active)	1.25e-05 µM (active)	> 0.0001 µM (active)	> 0.0001 µM (active)	9.27e-06 µM (active)	4.28e-05	2.85e-05 µM (active)	1.55e-05 µM (active)	–
C/C(CC(=O)Nc1ccc(Cl)c(Cl)c1)=N/NC(=O)C[n+]1ccccc1	> 100 µM (inactive)	> 100 µM (inactive)	77.4 µM (inactive)	> 100 µM (inactive)	68.2 µM (inactive)	–	> 100 µM (inactive)	> 100 µM (inactive)	> 100 µM (inactive)	> 100 µM (inactive)	> 100 µM (inactive)	> 100 µM (inactive)	> 100 µM (inactive)	> 100 µM (inactive)	–	> 100 µM (inactive)	30.5	94.2 µM (inactive)	44.4 µM (inactive)	–
CC1(C)CC(C)(C)C1=NNC(N)=O	> 100 µM (inactive)	> 100 µM (inactive)	> 100 µM (inactive)	> 100 µM (inactive)	> 100 µM (inactive)	> 100 µM (inactive)	> 100 µM (inactive)	> 100 µM (inactive)	> 100 µM (inactive)	> 100 µM (inactive)	> 100 µM (inactive)	> 100 µM (inactive)	> 100 µM (inactive)	> 100 µM (inactive)	> 100 µM (inactive)	> 100 µM (inactive)	> 100	> 100 µM (inactive)	> 100 µM (inactive)	–
COc1ccc(/C=N/n2c(-c3ccccc3)n[nH]c2=O)cc1	> 100 µM (inactive)	> 100 µM (inactive)	> 100 µM (inactive)	> 100 µM (inactive)	–	> 100 µM (inactive)	> 100 µM (inactive)	> 100 µM (inactive)	> 100 µM (inactive)	> 100 µM (inactive)	–	> 100 µM (inactive)	> 100 µM (inactive)	53.8 µM (inactive)	> 100 µM (inactive)	–	> 100	46.9 µM (inactive)	–	> 100 µM (inactive)
Cc1ccc(-c2c(C#N)c(-c3ccc(Cl)cc3)c(C#N)c(=O)n2NS(=O)(=O)c2ccc(C)cc2)cc1	36.3 µM (inactive)	18.7 µM (inactive)	27.4 µM (inactive)	19.5 µM (inactive)	23.1 µM (inactive)	–	36.2 µM (inactive)	26.2 µM (inactive)	47.6 µM (inactive)	74 µM (inactive)	56.1 µM (inactive)	19.5 µM (inactive)	34.1 µM (inactive)	26.6 µM (inactive)	18.3 µM (inactive)	21 µM (inactive)	28.2	16.9 µM (inactive)	–	23.5 µM (inactive)
Cc1cc(Cl)ccc1N1C(=O)C(=O)C(c2nc3ccccc3o2)C(=O)C1=O	> 100 µM (inactive)	> 100 µM (inactive)	> 100 µM (inactive)	67 µM (inactive)	> 100 µM (inactive)	–	> 100 µM (inactive)	> 100 µM (inactive)	> 100 µM (inactive)	71 µM (inactive)	> 100 µM (inactive)	> 100 µM (inactive)	> 100 µM (inactive)	> 100 µM (inactive)	–	> 100 µM (inactive)	> 100	30.4 µM (inactive)	33.2 µM (inactive)	–
CC1(C)CC(=O)c2c(nc3ccc4ccccc4c3c2-c2ccc(NC(=O)CCC(=O)Nc3ccc(-c4c5c(nc6ccc7ccccc7c46)CC(C)(C)CC5=O)cc3)cc2)C1	> 100 µM (inactive)	> 100 µM (inactive)	> 100 µM (inactive)	> 100 µM (inactive)	> 100 µM (inactive)	> 100 µM (inactive)	> 100 µM (inactive)	> 100 µM (inactive)	> 100 µM (inactive)	> 100 µM (inactive)	> 100 µM (inactive)	–	> 100 µM (inactive)	–	> 100 µM (inactive)	> 100 µM (inactive)	–	> 100 µM (inactive)	> 100 µM (inactive)	–
